The source of these data is publication PMC5069662, “Transient Induced Molecular Electronic Spectroscopy (TIMES) for study of protein-ligand interactions” (Scientific Reports, 2016).

The target in the assay is T1, Thermolysin (Bacillus thermoproteolyticus, UniProt P00800).
T1 construct: gene npr
The assay can be described thus: TIMES (label-free, immobilization-free microfluidic electronic detection), […] Tris-HCl buffer pH […]. Type of assay: binding. As to conditions: read-out: Measured KD from TIMES.

T1 sequence (P00800 233-548): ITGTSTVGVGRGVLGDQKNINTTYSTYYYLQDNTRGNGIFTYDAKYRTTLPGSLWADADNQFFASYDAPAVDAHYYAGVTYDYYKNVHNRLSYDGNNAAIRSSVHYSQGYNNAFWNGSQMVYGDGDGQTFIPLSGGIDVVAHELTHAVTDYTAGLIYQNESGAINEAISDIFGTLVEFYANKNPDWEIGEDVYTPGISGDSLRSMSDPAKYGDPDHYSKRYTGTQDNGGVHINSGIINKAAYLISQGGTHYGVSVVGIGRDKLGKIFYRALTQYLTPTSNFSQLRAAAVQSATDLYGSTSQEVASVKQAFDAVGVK

As to `CC(C)C[C@H](NP(=O)(O)O[C@@H]1O[C@@H](C)[C@H](O)[C@@H](O)[C@H]1O)C(=O)N[C@@H](Cc1c[nH]c2ccccc12)C(=O)O` [phosphoramidon], the Kd is 32.1 ± 1.9 nM.
